SMILES strings stand for the structures.

The target in the first assay is T1, Nox4 (Homo sapiens, UniProt Q9NPH5).
T1 construct: expressed in transfected cells
T1 sequence (Q9NPH5 1-578): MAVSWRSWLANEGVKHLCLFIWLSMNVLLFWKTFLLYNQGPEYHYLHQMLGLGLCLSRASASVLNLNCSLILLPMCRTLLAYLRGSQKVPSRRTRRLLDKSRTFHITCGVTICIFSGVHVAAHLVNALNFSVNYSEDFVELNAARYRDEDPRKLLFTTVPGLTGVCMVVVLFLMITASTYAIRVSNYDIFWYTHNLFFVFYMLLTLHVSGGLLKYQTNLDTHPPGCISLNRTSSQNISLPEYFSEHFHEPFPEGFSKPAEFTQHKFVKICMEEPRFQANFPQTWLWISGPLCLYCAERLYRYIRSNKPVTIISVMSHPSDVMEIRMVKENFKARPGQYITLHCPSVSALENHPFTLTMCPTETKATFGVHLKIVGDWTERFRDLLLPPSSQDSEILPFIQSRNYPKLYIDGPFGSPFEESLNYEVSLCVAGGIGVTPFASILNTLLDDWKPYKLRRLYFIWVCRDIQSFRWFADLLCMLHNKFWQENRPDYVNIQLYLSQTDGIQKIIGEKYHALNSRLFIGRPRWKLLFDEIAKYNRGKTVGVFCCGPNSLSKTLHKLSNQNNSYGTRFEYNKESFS
T1 sequence (P13498 1-195 partner): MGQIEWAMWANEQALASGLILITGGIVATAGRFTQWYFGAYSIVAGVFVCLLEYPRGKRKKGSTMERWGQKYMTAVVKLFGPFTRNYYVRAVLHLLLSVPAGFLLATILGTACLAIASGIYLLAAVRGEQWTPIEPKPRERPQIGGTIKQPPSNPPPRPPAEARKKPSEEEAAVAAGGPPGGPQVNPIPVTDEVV
The experiment in a line: Inhibition of Nox4-dependent H2O2 production in HEK/Nox4 cells, Amplex Red assay. The assay is classed as cell-based. The following applies: 1 μM final concentration, 1 h, HEK/Nox4 cells; DMSO vehicle = 1.000; n = 3-10; read-out: H2O2 production relative to vehicle control, Mean. The method, then: A high-throughput screening (HTS) assay was established for Nox4 inhibition, utilizing HEK293 cells that stably over-express Nox4 (HEK/Nox4 cells), which generate high levels of H2O2(Cheng G et al, Gene: 2001, p. 131-140). Over 30,000 compounds have been screened and medicinal chemistry efforts have led to the synthesis of numerous analogs and the identification of a chemically distinct series of selective Nox4 inhibitors. […] IC-50 was evaluated for UANox048 (FIG. 1B).
HEK cells stably transfected to overexpress Nox4 were treated with varying concentrations of test compounds, DPI (all-Nox inhibitor positive control), or DMSO (vehicle control) and incubated for 1 h (FIG. 1). (FIG. 1A) H2O2 presence was evaluated by Amplex Red assay. […] Values represent means±SEM; n=4. P values were calculated by student's two-tailed t test. *p<0.05, **p<0.01, *** p<0.001.
For `CCN(CC)S(=O)(=O)NCC(C)N1CCc2cc(-c3cccc(OC)c3)ccc21` (stereo not drawn) [UANOX036, N-(2-(5-(3-methoxyphenyl)indolin-1-yl)propyl)-N,N-diethyl-1-sulfonamide], the remaining activity at 1 µM came to 102%.

Turning to `O=C(CCN1CCN(c2ncccn2)CC1)N1CCc2ccccc21` [UANOX022, 1-(indolin-1-yl)-3-(4-(pyrimidin-2-yl)piperazin-1-yl)propan-1-one], the remaining activity at 1 µM came to 111%.

Regarding `CC(CNC(=O)c1csc(-c2ccc(C(F)(F)F)cc2)n1)N1CCc2ccccc21` (stereo not drawn) [UANOX056, N-(2-(indolin-1-yl)propyl)-2-(4-(trifluoromethyl)phenyl)thiazole-4-carboxamide], the remaining activity at 1 µM amounted to 95.9%.

With `c1ccc2c(c1)CCN2CCN1CCCCC1` [UANOX018, 1-(2-(piperidin-1-yl)ethyl)indoline], the remaining activity at 1 µM stood at 110%.

For `CCN(CC)S(=O)(=O)N1CCN(CCC(=O)N2CCc3ccccc32)CC1` [UANOX029, N,N-diethyl-4-(3-(indolin-1-yl)-3-oxopropyl)piperazine-1-sulfonamide], the remaining activity at 1 µM came out at 112%.

Turning to `CC(CNS(=O)(=O)c1ccc(Oc2ccccc2)cc1)N1CCc2ccccc21` (stereo not drawn) [UANOX071, N-(2-(indolin-1-yl)propyl)-4-phenoxybenzenesulfonamide], the remaining activity at 1 µM was 90.8%.

Regarding `CN(C)S(=O)(=O)N1CCN(CC(=O)N2CCc3ccccc32)CC1` [UANOX028, 4-(2-(indolin-1-yl)-2-oxoethyl)-N,N-dimethylpiperazine-1-sulfonamide], the remaining activity at 1 µM worked out at 108%.

Turning to `CN(C)S(=O)(=O)NCCN1CCc2ccccc21` [UANOX003, N—(N,N-dimethylaminosulfonyl)-2-(indolin-1-yl)ethan-1-amine], the remaining activity at 1 µM worked out at 101%.

Regarding `CC(CNC(=O)N1CCN(C)CC1)N1CCc2ccccc21` (stereo not drawn) [UANOX019, N-(2-(indolin-1-yl)propyl)-4-methylpiperazine-1-carboxamide], the remaining activity at 1 µM stood at 91.5%.

Take `CC(C)(CNS(=O)(=O)c1ccc(C(F)(F)F)cc1)N1CCc2ccccc21` [UANOX084, N-(2-(indolin-1-yl)-2-methylpropyl)-4-(trifluoromethyl)benzenesulfonamide]: the remaining activity at 1 µM is 90.3%.

In the case of `O=C(CN1CCN(c2ncccn2)CC1)N1CCc2ccccc21` [UANOX0192, 1-(indolin-1-yl)-2-(4-(pyrimidin-2-yl)piperazin-1-yl)ethan-1-one], the remaining activity at 1 µM is 96.4%.

Take `CC(CNS(=O)(=O)c1ccc(OC(F)(F)F)cc1)N1CCc2ccccc21` (stereo not drawn) [UANOX049, N-(2-(indolin-1-yl)propyl)-4-(trifluoromethoxy)benzenesulfonamide]: the remaining activity at 1 µM is 87.1%.

As for `O=S(=O)(c1ccc(OC(F)(F)F)cc1)N1CCN(CCN2CCc3ccccc32)CC1` [UANOX062, 1-(2-(4-((4-(trifluoromethoxy)phenyl)sulfonyl)piperazin-1-yl)ethyl)indoline], the remaining activity at 1 µM is 88.7%.

Staying with this assay, now noted: 5 μM final concentration, 1 h, HEK/Nox4 cells; DMSO vehicle = 1.000; n = 3-10; read-out: H2O2 production relative to vehicle control, Mean.
For `CCN(CC)S(=O)(=O)NCC(C)N1CCc2cc(-c3cccc(OC)c3)ccc21` (stereo not drawn) [UANOX036, N-(2-(5-(3-methoxyphenyl)indolin-1-yl)propyl)-N,N-diethyl-1-sulfonamide], the remaining activity at 5 µM amounted to 83.2%.

For `O=C(CCN1CCN(c2ncccn2)CC1)N1CCc2ccccc21` [UANOX022, 1-(indolin-1-yl)-3-(4-(pyrimidin-2-yl)piperazin-1-yl)propan-1-one], the remaining activity at 5 µM is 107%.

`CC(CNC(=O)c1csc(-c2ccc(C(F)(F)F)cc2)n1)N1CCc2ccccc21` (stereo not drawn) [UANOX056, N-(2-(indolin-1-yl)propyl)-2-(4-(trifluoromethyl)phenyl)thiazole-4-carboxamide]: the remaining activity at 5 µM stood at 88.4%.

As for `c1ccc2c(c1)CCN2CCN1CCCCC1` [UANOX018, 1-(2-(piperidin-1-yl)ethyl)indoline], the remaining activity at 5 µM came to 103%.

For the compound `CCN(CC)S(=O)(=O)N1CCN(CCC(=O)N2CCc3ccccc32)CC1` [UANOX029, N,N-diethyl-4-(3-(indolin-1-yl)-3-oxopropyl)piperazine-1-sulfonamide], the remaining activity at 5 µM was 112%.

`CC(CNS(=O)(=O)c1ccc(Oc2ccccc2)cc1)N1CCc2ccccc21` (stereo not drawn) [UANOX071, N-(2-(indolin-1-yl)propyl)-4-phenoxybenzenesulfonamide]: the remaining activity at 5 µM was 85.6%.

In the case of `CN(C)S(=O)(=O)N1CCN(CC(=O)N2CCc3ccccc32)CC1` [UANOX028, 4-(2-(indolin-1-yl)-2-oxoethyl)-N,N-dimethylpiperazine-1-sulfonamide], the remaining activity at 5 µM is 112%.

In the case of `CN(C)S(=O)(=O)NCCN1CCc2ccccc21` [UANOX003, N—(N,N-dimethylaminosulfonyl)-2-(indolin-1-yl)ethan-1-amine], the remaining activity at 5 µM was 103%.

`CC(CNC(=O)N1CCN(C)CC1)N1CCc2ccccc21` (stereo not drawn) [UANOX019, N-(2-(indolin-1-yl)propyl)-4-methylpiperazine-1-carboxamide]: the remaining activity at 5 µM is 81.4%.

As to `CC(C)(CNS(=O)(=O)c1ccc(C(F)(F)F)cc1)N1CCc2ccccc21` [UANOX084, N-(2-(indolin-1-yl)-2-methylpropyl)-4-(trifluoromethyl)benzenesulfonamide], the remaining activity at 5 µM was determined as 77.5%.

As to `O=C(CN1CCN(c2ncccn2)CC1)N1CCc2ccccc21` [UANOX0192, 1-(indolin-1-yl)-2-(4-(pyrimidin-2-yl)piperazin-1-yl)ethan-1-one], the remaining activity at 5 µM was 111%.

Turning to `CC(CNS(=O)(=O)c1ccc(OC(F)(F)F)cc1)N1CCc2ccccc21` (stereo not drawn) [UANOX049, N-(2-(indolin-1-yl)propyl)-4-(trifluoromethoxy)benzenesulfonamide], the remaining activity at 5 µM was 78.4%.

Regarding `O=S(=O)(c1ccc(OC(F)(F)F)cc1)N1CCN(CCN2CCc3ccccc32)CC1` [UANOX062, 1-(2-(4-((4-(trifluoromethoxy)phenyl)sulfonyl)piperazin-1-yl)ethyl)indoline], the remaining activity at 5 µM was 75.8%.

Still in this assay, the particulars now being: 10 μM final concentration, 1 h, HEK/Nox4 cells; DMSO vehicle = 1.000; n = 3-10; read-out: H2O2 production relative to vehicle control, Mean.
As for `CCN(CC)S(=O)(=O)NCC(C)N1CCc2cc(-c3cccc(OC)c3)ccc21` (stereo not drawn) [UANOX036, N-(2-(5-(3-methoxyphenyl)indolin-1-yl)propyl)-N,N-diethyl-1-sulfonamide], the remaining activity at 10 µM came to 74.7%.

Turning to `O=C(CCN1CCN(c2ncccn2)CC1)N1CCc2ccccc21` [UANOX022, 1-(indolin-1-yl)-3-(4-(pyrimidin-2-yl)piperazin-1-yl)propan-1-one], the remaining activity at 10 µM amounted to 110%.

`CC(CNC(=O)c1csc(-c2ccc(C(F)(F)F)cc2)n1)N1CCc2ccccc21` (stereo not drawn) [UANOX056, N-(2-(indolin-1-yl)propyl)-2-(4-(trifluoromethyl)phenyl)thiazole-4-carboxamide]: the remaining activity at 10 µM stood at 83.4%.

On to `c1ccc2c(c1)CCN2CCN1CCCCC1` [UANOX018, 1-(2-(piperidin-1-yl)ethyl)indoline], for which the remaining activity at 10 µM came to 100%.

As for `CCN(CC)S(=O)(=O)N1CCN(CCC(=O)N2CCc3ccccc32)CC1` [UANOX029, N,N-diethyl-4-(3-(indolin-1-yl)-3-oxopropyl)piperazine-1-sulfonamide], the remaining activity at 10 µM came out at 110%.

As to `CC(CNS(=O)(=O)c1ccc(Oc2ccccc2)cc1)N1CCc2ccccc21` (stereo not drawn) [UANOX071, N-(2-(indolin-1-yl)propyl)-4-phenoxybenzenesulfonamide], the remaining activity at 10 µM was 77%.

Turning to `CN(C)S(=O)(=O)N1CCN(CC(=O)N2CCc3ccccc32)CC1` [UANOX028, 4-(2-(indolin-1-yl)-2-oxoethyl)-N,N-dimethylpiperazine-1-sulfonamide], the remaining activity at 10 µM amounted to 111%.

Take `CN(C)S(=O)(=O)NCCN1CCc2ccccc21` [UANOX003, N—(N,N-dimethylaminosulfonyl)-2-(indolin-1-yl)ethan-1-amine]: the remaining activity at 10 µM turned out to be 103%.

Regarding `CC(CNC(=O)N1CCN(C)CC1)N1CCc2ccccc21` (stereo not drawn) [UANOX019, N-(2-(indolin-1-yl)propyl)-4-methylpiperazine-1-carboxamide], the remaining activity at 10 µM came out at 74.1%.

Regarding `CC(C)(CNS(=O)(=O)c1ccc(C(F)(F)F)cc1)N1CCc2ccccc21` [UANOX084, N-(2-(indolin-1-yl)-2-methylpropyl)-4-(trifluoromethyl)benzenesulfonamide], the remaining activity at 10 µM came out at 67.5%.

On to `O=C(CN1CCN(c2ncccn2)CC1)N1CCc2ccccc21` [UANOX0192, 1-(indolin-1-yl)-2-(4-(pyrimidin-2-yl)piperazin-1-yl)ethan-1-one], for which the remaining activity at 10 µM turned out to be 108%.

Take `CC(CNS(=O)(=O)c1ccc(OC(F)(F)F)cc1)N1CCc2ccccc21` (stereo not drawn) [UANOX049, N-(2-(indolin-1-yl)propyl)-4-(trifluoromethoxy)benzenesulfonamide]: the remaining activity at 10 µM amounted to 71.4%.

As to `O=S(=O)(c1ccc(OC(F)(F)F)cc1)N1CCN(CCN2CCc3ccccc32)CC1` [UANOX062, 1-(2-(4-((4-(trifluoromethoxy)phenyl)sulfonyl)piperazin-1-yl)ethyl)indoline], the remaining activity at 10 µM was 66.4%.

The record behind these values is patent publication US10654802B2, “Indoline derivatives and method for using and producing the same” (ARIZONA BOARD OF REGENTS ON BEHALF OF THE UNIVERSITY OF …, priority 2016, dated 2020).
